Source: US12629374B2, “Antimalarial agents” (Merck Sharp & Dohme LLC, priority 2020, dated 2026)
Like-named read-outs stand apart in the source and are kept apart here.

Tested on: ring stage parasites
Test: Parasite growth potency assay, 72 hours, LDH readout
Assay type: cell-based
Details: parasite growth measured by LDH assay after 72 hours at 37° C., 0.7% rings, 2% haematocrit, read-out: EC50
Procedure: The parasite stock was maintained at 4% haematocrit in RPMI-Hepes media buffered with sodium bicarbonate and supplemented with 5% heat inactivated human serum and 0.5% albumax.
On the day of assay set up, a blood smear of the parasite culture was Giemsa stained and counted. The parasitemia was adjusted to 0.7% rings and the haematocrit was diluted to 2% in RPMI-Hepes media buffered with sodium bicarbonate and supplemented with 5% heat inactivated human serum and 0.5% albumax. 30 ul of diluted parasites are then added into 10 ul of media+compound in pre-prepared Greiner TC assay plates. Parasite assay plates were placed in gassed humidified boxes in single layer and allowed to incubate at 37° C. for 72 hours. After 72 hours growth, assay plates are sealed with parafilm and frozen flat, in single file at −80° C. overnight. On the following day, assay plates are allowed to thaw at room temperature for 4 hours to which an LDH assay is performed to measure parasite growth.

SMILES | EC50 (72 h) [nM] | other results
CCC12CCCCCCC3COc4ccccc4C3NC(=O)c3cccc(c3)CN(C(=N)N1)C(=O)C2 (single isomer, unassigned) [Example 120A, (26-ethyl-8,29-dioxo-17-oxa-1,9,27-triazapentacyclo[24.2.2.13,7.010,19. 011,16]hentriaconta-3,5,7(31),11(16),12,14-hexaen-28-ylidene)ammonium; 2,2,2-trifluoroacetate] |  | EC50: 70.3 nM
CCC1(CC)CC(=O)N([C@H](CCOC)c2cccc(C(=O)NC3c4ccccc4C(F)(F)C3O)c2)C(=N)N1 (stereo partly drawn) [Example 189A, [1-[(1R)-1-[3-[(3,3-difluoro-2-hydroxy-indan-1-yl)carbamoyl]phenyl]-3-methoxy-propyl]-4,4-diethyl-6-oxo-hexahydropyrimidin-2-ylidene]ammonium; 2,2,2-trifluoroacetate] |  | EC50 (trifluoroacetate): 0.8 nM
CCC1(CC)CC(=O)N([C@H](CCOC(F)F)c2cccc(C(=O)N[C@@H]3c4ccccc4C[C@]3(C)O)c2)C(=N)N1 [Example 158B, 3-[1-(4,4-diethyl-2-imino-6-oxo-hexahydropyrimidin-1-yl)-3-(difluoromethoxy)propyl]-N-[(1R,2S)-2-hydroxy-2-methyl-indan-1-yl]benzamide] |  | EC50: 2.4 nM
CCC1(CC)CC(=O)N(C(CCOC)c2ccc(C(F)(F)F)c(C(=O)N[C@@H]3c4ccccc4C[C@H]3O)c2)C(=N)N1 (stereo partly drawn) [Example 239, 5-[1-(4,4-diethyl-2-imino-6-oxo-hexahydropyrimidin-1-yl)-3-methoxy-propyl]-N-[(1R,2R)-2-hydroxyindan-1-yl]-2-(trifluoromethyl)benzamide] | 3.6 | 
COCC[C@H](c1cncc(C(=O)N[C@@H]2c3ccccc3C[C@H]2O)c1)N1C(=N)N[C@](C)(C(C)C)CC1=O [Example 130, [(4S)-1-[1-[5-[[(1R,2R)-2-hydroxyindan-1-yl]carbamoyl]pyridin-1-ium-3-yl]-3-methoxy-propyl]-4-isopropyl-4-methyl-6-oxo-hexahydropyrimidin-2-ylidene]ammonium; 2,2,2-trifluoroacetate] | 18.8 | 
CCC1(CC)CC(=O)N(Cc2cccc(C(=O)N[C@H]3CCOc4ccccc43)c2)C(=N)N1 [Example 11, [1-[[3-[[(4S)-chroman-4-yl]carbamoyl]phenyl]methyl]-4,4-diethyl-6-oxo-hexahydropyrimidin-2-ylidene]ammonium; 2,2,2-trifluoroacetate] | 1.5 | 
CCC[C@H](c1cncc(C(=O)N[C@@H]2c3ccccc3C[C@H]2O)c1)N1C(=N)NC(CC)(CC)CC1=O [Example 57, [4,4-diethyl-1-[1-[5-[[(1R,2R)-2-hydroxyindan-1-yl]carbamoyl]pyridin-1-ium-3-yl]butyl]-6-oxo-hexahydropyrimidin-2-ylidene]ammonium; 2,2,2-trifluoroacetate] | 0.6 | 
CCC12CCCCCCCC3CC(NC(=O)c4cccc(c4)CN(C(=N)N1)C(=O)C2)c1ccccc1O3 (stereo not drawn) [Example 118, (26-ethyl-8,29-dioxo-17-oxa-1,9,27-triazapentacyclo[24.2.2.13,7.110,18. 011,16]dotriaconta-3,5,7(32),11(16),12,14-hexaen-28-ylidene)ammonium; 2,2,2-trifluoroacetate] | 56.5 | 
CCC[C@H](c1cccc(C(=O)N[C@H]2c3ccccc3OCC2O)c1)N1C(=N)NC(CC)(CC)CC1=O (stereo partly drawn) [Example 127C, 3-[(1R)-1-(4,4-diethyl-2-imino-6-oxo-hexahydropyrimidin-1-yl)butyl]-N-(3-hydroxychroman-4-yl)benzamide] |  | EC50: 53.8 nM
CCC1(CC)CC(=O)N([C@@H](c2cccc(C(=O)N[C@H]3CC(C)(C)Oc4ccccc43)c2)C(C)c2cccnc2)C(=N)N1 (stereo partly drawn) [Example 96, [1-[1-[3-[[(4S)-2,2-dimethylchroman-4-yl]carbamoyl]phenyl]-2-pyridin-1-ium-3-yl-propyl]-4,4-diethyl-6-oxo-hexahydropyrimidin-2-ylidenelammonium; 2,2,2-trifluoroacetate] | 19.9 | 
CCC1(CC)CC(=O)N(Cc2cccc(C(=O)N[C@H]3CC(C)(C)Oc4c3ccc(F)c4F)c2)C(=N)N1 (stereo in doubt) [Example 117, [1-[[3-[(7,8-difluoro-2,2-dimethyl-chroman-4-yl)carbamoyl]phenyl]methyl]-4,4-diethyl-6-oxo-hexahydropyrimidin-2-ylidene]ammonium; 2,2,2-trifluoroacetate] | 1.5 | 
CCC1(CC)CC(=O)N(Cc2cccc(C(=O)N[C@@H]3c4ccccc4OCC3F)c2)C(=N)N1 (stereo in doubt) [Example 87, [4,4-diethyl-1-[[3-[(3-fluorochroman-4-yl)carbamoyl]phenyl]methyl]-6-oxo-hexahydropyrimidin-2-ylidene]ammonium; 2,2,2-trifluoroacetate] | 7.3 | 
CCC1(CC)CC(=O)N([C@H](c2cncnc2)c2cccc(C(=O)N[C@@H]3c4ccccc4C[C@H]3O)c2)C(=N)N1 [Example 110B, 3-[(4,4-diethyl-2-imino-6-oxo-hexahydropyrimidin-1-yl)-pyrimidin-5-yl-methyl]-N-[(1R,2R)-2-hydroxyindan-1-yl]benzamide] | 8.3 | 
CCC1(CC)CC(=O)N([C@@H](c2cccc(C(=O)N[C@@H]3c4ccccc4C[C@H]3O)c2)C23CC(C2)C3)C(=N)N1 [Example 34, [1-[1-bicyclo[1.1.1]pentanyl-[3-[[(1R,2R)-2-hydroxyindan-1-yl]carbamoyl]phenyl]methyl]-4,4-diethyl-6-oxo-hexahydropyrimidin-2-ylidene]ammonium; 2,2,2-trifluoroacetate] | 0.5 | 
CCC1(C)CC(=O)N([C@H](CCOC)c2cccc(C(=O)N[C@@H]3c4ccccc4C[C@H]3O)c2)C(=N)N1 (stereo partly drawn) [Example 195B, [4-ethyl-1-[(1R)-1-[3-[[(1R,2R)-2-hydroxyindan-1-yl]carbamoyl]phenyl]-3-methoxy-propyl]-4-methyl-6-oxo-hexahydropyrimidin-2-ylidene]ammonium; 2,2,2-trifluoroacetate] |  | EC50 (trifluoroacetate): 2.7 nM
C#CCC[C@H](c1cccc(C(=O)N[C@H]2CC(C)(C)Oc3ccccc32)c1)N1C(=N)N[C@](C)(C(C)C)CC1=O [Example 108A, [(4S)-1-[1-[3-[[(4S)-2,2-dimethylchroman-4-yl]carbamoyl]phenyl]pent-4-ynyl]-4-isopropyl-4-methyl-6-oxo-hexahydropyrimidin-2-ylidene]ammonium; 2,2,2-trifluoroacetate] | 0.4 | 
N=C1N[C@@](CC2CC2)(c2ccccc2)CC(=O)N1Cc1cccc(C(=O)N[C@@H]2c3ccccc3C[C@H]2O)c1 [Example 17, [(4R)-4-(cyclopropylmethyl)-1-[[3-[[(1R,2R)-2-hydroxyindan-1-yl]carbamoyl]phenyl]methyl]-6-oxo-4-phenyl-hexahydropyrimidin-2-ylidene]ammonium; 2,2,2-trifluoroacetate] | 3.7 | 
CCC1(CC)CC(=O)N(Cc2cc(F)cc(C(=O)N[C@H]3CCOc4ccccc43)c2)C(=N)N1 [Example 12, [1-[[3-[[(4S)-chroman-4-yl]carbamoyl]-5-fluoro-phenyl]methyl]-4,4-diethyl-6-oxo-hexahydropyrimidin-2-ylidene]ammonium; 2,2,2-trifluoroacetate] | 1.4 | 
CCC1(CC)CC(=O)N([C@H](CCN2CCOCC2)c2cccc(C(=O)N[C@@H]3c4ccccc4C[C@H]3O)c2)C(=N)N1 [Example 55, [4,4-diethyl-1-[1-[3-[[(1R,2R)-2-hydroxyindan-1-yl]carbamoyl]phenyl]-3-morpholin-4-ium-4-yl-propyl]-6-oxo-hexahydropyrimidin-2-ylidene]ammonium; 2,2,2-trifluoroacetate] | 9.8 | 
CCC1(CC)CC(=O)N([C@H](CCS(C)(=O)=O)c2cccc(C(=O)N[C@H]3C[C@H](C(F)(F)F)Oc4ccccc43)c2)C(=N)N1 [Example 162, [4,4-diethyl-1-[3-methylsulfonyl-1-[3-[[(2R,4S)-2-(trifluoromethyl)chroman-4-yl]carbamoyl]phenyl]propyl]-6-oxo-hexahydropyrimidin-2-ylidene]ammonium; 2,2,2-trifluoroacetate] | 5.2 | 
CCC1(CC)CC(=O)N(C(CCOC)c2ccc(C(F)(F)F)c(C(=O)N[C@@H]3c4ccccc4OC[C@@]3(C)O)c2)C(=N)N1 (stereo partly drawn) [Example 244, 5-[1-(4,4-diethyl-2-imino-6-oxo-hexahydropyrimidin-1-yl)-3-methoxy-propyl]-N-[(3S,4R)-3-hydroxy-3-methyl-chroman-4-yl]-2-(trifluoromethyl)benzamide] | 6.13 | 
N=C1N[C@@](CC2CC2)(c2ccccc2)CC(=O)N1Cc1cccc(C(=O)N[C@@H]2CCOc3ccccc32)c1 [Example 6B, [(4R)-1-[[3-[[(4R)-chroman-4-yl]carbamoyl]phenyl]methyl]-4-(cyclopropylmethyl)-6-oxo-4-phenyl-hexahydropyrimidin-2-ylidene]ammonium; 2,2,2-trifluoroacetate] | 83.9 | 
C=CC[C@H](c1cccc(C(=O)N[C@H]2CCOc3ccccc32)c1)N1C(=N)NC(CC)(CC)CC1=O [Example 41, [1-[1-[3-[[(4S)-chroman-4-yl]carbamoyl]phenyl]but-3-enyl]-4,4-diethyl-6-oxo-hexahydropyrimidin-2-ylidene]ammonium; 2,2,2-trifluoroacetate] | 0.9 | 
CCC1(CC)CC(=O)N([C@H](c2cncc(F)c2)c2cccc(C(=O)N[C@H]3CCOc4ccccc43)c2)C(=N)N1 [Example 106A, [1-[[3-[[(4S)-chroman-4-yl]carbamoyl]phenyl]-(5-fluoropyridin-1-ium-3-yl)methyl]-4,4-diethyl-6-oxo-hexahydropyrimidin-2-ylidene]ammonium; 2,2,2-trifluoroacetate] | 0.5 | 
